From US20180369264A1, “COMBINATION OF A CARDIAC STEROID AND AN AKT INHIBITOR FOR THE TREATMENT OF CARDIOVASCULAR DISEASES AND DISORDERS” (YISSUM RESEARCH DEVELOPMENT COMPANY OF THE HEBREW …, priority 2015, published 2018)

What was measured:
[1] = tested on: adult acc mutant primary cardiomyocytes; test: acc mutant primary cardiomyocyte contractility; type: cell-based, zebrafish; settings: for amplitude of contractility: 0.1 nM ouabain or 1 nM MK-2206 alone; for Amplitude / Contraction Rate (−dv/dt) / Relaxation Rate (+dv/dt): Acc mutant, 0.1 nM Oua, 1 nM MK, 20 minutes, 0.5 Hz
Procedure: Adult (4 to 12-month-old) ventricular myocytes were obtained by enzymatic dissociation (with collagenase II and IV, at 5 mg/ml, each). The zebrafish were stunned by a blow to the head and the brain was pithed. The heart was quickly removed and placed in a small Petri dish containing 10 ml isolation solution: 100 mM NaCl, 10 mM KCl, 1.2 mM KH2PO4, 4 mM MgSO4, 50 mM taurine, 20 mM glucose, and 10 mM Hepes, pH 6.9. The ventricle was cut free from the bulbus and atrium under a binocular. Ventricles from 3 fish were incubated for 45 minutes at 32° C. in a solution containing perfusion buffer (150 mM NaCl, 5.4 mM KCl, 1.5 mM MgSO4, 0.4 mM NaH2PO4, 2 mM CaCl2, 10 mM glucose, and 10 mM Hepes, pH 7.7). Collagenases II and IV (Gibco, NY, USA, 5 mg/ml each) and additional CaCl2 (2.012 mM final concentration) were added. Following Eppendorf centrifugation (1 minute, 250×g at room temperature) the precipitated cells were suspended in 1 ml perfusion buffer for 30 minutes at room temperature before use.
Cells were transferred to a chamber with a quartz base and examined using an inverted epifluorescence microscope (Nikon Diaphot 200, Japan). The myocytes were field-stimulated (0.5 Hz, 70 V, square waves) and contractions were measured using a video motion edge detector (Crescent Electronics, Sandy, Utah, USA) at the rate of 5 Hz. Cardiomyocyte performance was calculated as the percentage of resting cell length. The slopes of contraction and relaxation (+dL/dt and −dL/dt) were calculated from the linear portions of the changes in contractility. 9 cells per each group were measured. Each of the experiments was repeated at least 3 times with identical results.

[2] = tested on: ERK; test: ERK phosphorylation in adult zebrafish heart (Western blot); type: in vivo; settings: wt adult zebrafish, 1 μM in swimming media, 5 minutes
Procedure: (§1) Adult zebrafish (˜12-months-old) were transferred to swimming medium containing 1 μM of CS drugs, as specified in the following examples. At various time points (5-30 min), as indicated in the following examples, the zebrafish were transferred to perfusion buffer and the hearts were immediately removed and transferred to RIPA lysis buffer (Sigma-Aldrich), and protease inhibitor cocktail (P8340, Sigma-Aldrich), at a 1:100 dilution). The tissue was homogenized in an ultrasonic homogenizer (Microson, NY, USA) and aliquots of the homogenate were stored at −70° C. until used.
Protein dilution and separation on SDS-PAGE electrophoresis, their transfer to a polyvinylidene fluoride membrane were carried out. […] The membranes were washed with TBS containing 0.1% Tween and exposed to horseradish peroxidase-conjugated secondary goat anti-rabbit IgG antibody (1:50,000). The membranes were stripped prior to their exposure to a different antibody. Detection was carried out with the aid of a Luminata™ Crescendo Western HRP Substrates, according to the manufacturer's instructions.

[3] = tested on: Akt; test: Akt phosphorylation in adult zebrafish heart (Western blot); type: in vivo; settings: wt adult zebrafish, 1 μM in swimming media, 5 minutes
Procedure: as §1
Protein dilution and separation on SDS-PAGE electrophoresis, their transfer to a polyvinylidene fluoride membrane were carried out. The membranes were incubated for 1 hour at room temperature with one of the specific antibodies against Phospho-p44/42 MAPK (Erk1/2) (Thr202/Tyr204), Rabbit mAb #4370 (Cell signaling) or Phospho-Akt (Ser473) (193H12), Rabbit mAb #4058 (Cell signaling), at a 1:1000 dilution in TBS containing 0.1% Tween. The membranes were washed with TBS containing 0.1% Tween and exposed to horseradish peroxidase-conjugated secondary goat anti-rabbit IgG antibody (1:50,000). The membranes were stripped prior to their exposure to a different antibody. Detection was carried out with the aid of a Luminata™ Crescendo Western HRP Substrates, according to the manufacturer's instructions.

[4] = type: in vivo, rat; settings: 10 day post MI
Procedure: Male Wister rats (150-175 g body weight) were used. Left anterior descending artery (LAD)-ligation was performed in all animals. […] All injected solutions contained 9% DMSO. Heart contractility in-vivo was monitored using echocardiography. At the end of the treatment period, animals were sacrificed and heart and blood samples were harvested for analysis. Blood samples were also collected (from the eye) at baseline and 24 hours post myocardial infarction (MI).
Blood samples were collected from rat eye at baseline and at 24 hrs. Post LAD-ligation. The plasmas of 11 animals were tested for the indicated biomarkers of MI.

[5] = tested on: LAD-ligated rats; test: Heart contractility (echocardiography: SF, HR) in LAD-ligated rats; type: in vivo, rat; settings: for effect on heart rate: 24 hours, 3 and 6 days post MI; for SF improvement relative to 24 hours post MI: ouabain 0.8 mg/kg/day, MK-2206 12 mg/kg/day, 3, 6 and 10 days post MI
Procedure: Male Wister rats (150-175 g body weight) were used. Left anterior descending artery (LAD)-ligation was performed in all animals. The rats were divided to four groups, each treated with subcutaneous injection with saline (0.5 ml/kg/day), ouabain (0.8-8 mg/kg/day), MK-2206 (12 mg/Kg/day) or a combination of MK-2206 and ouabain. All injected solutions contained 9% DMSO. Heart contractility in-vivo was monitored using echocardiography. At the end of the treatment period, animals were sacrificed and heart and blood samples were harvested for analysis. Blood samples were also collected (from the eye) at baseline and 24 hours post myocardial infarction (MI).
Rats were anesthetized with 10% ketamine, 2% xylazine (0.1 ml/kg) and ventilated with a small animal respirator (Harvard). The heart was exposed via left sternotomy, and the LAD-ligation was induced by placing a 6-0 silk suture around the left anterior descending coronary artery near the atrial auricle. The animals were allowed to recover and treated with 0.5 mg/100 g Tramadol Hydrochloride by subcutaneous injection for post-operative analgesia.
Echocardiograms were performed on rats anesthetized with 2% isoflurane at baseline, at 24 hours, as well as at 3, 6 and 10 days post LAD-ligation, using a VEVO 770 equipped with a 30 MHz linear transthoracic transducer (VisualSonics). Measurements were performed in triplicate using the leading-edge convention for myocardial borders as defined by the […]. Left ventricular, end-diastolic and end-systolic diameters (LVEDD and LVESD), diastolic and systolic interventricular septal diameters (IVSD and IVSS), left ventricular diastolic area (LVEDA), left ventricular systolic area (LVESA), and heart rate (HR) were measured. Shortening fraction (SF) was calculated by the equation: SF (%)=(LVEDD−LVESD)/LVEDD×100. Heart rate was measure by peak intervals of the echocardiography measurements. All measurements were performed by an individual who was blind to the entire experimental protocol and animal treatments.

Compound | amplitude of contractility [1] | Amplitude [1] | Contraction Rate (−dv/dt) [1] | Relaxation Rate (+dv/dt) [1] | increase in the contraction amplitude ([1]; ouabain in the presence of Akt inhibitor) [%] | increase in ERK phosphorylation in the heart [2] [%] | increase in Akt phosphorylation in the heart [3] [%] | CPK [4] [unit/L] | Trop-T [4] [ng/mL] | effect on shortening fraction (SF) following LAD-ligation ([5]; 0.8 mg/kg/day, by itself) | effect on shortening fraction (SF) following LAD-ligation ([5]; 8 mg/kg/day) | effect on heart rate [5] | SF improvement relative to 24 hours post MI [5]
C[C@@H]1O[C@@H](O[C@H]2C[C@@H](O)[C@]3(CO)[C@H]4[C@H](O)C[C@]5(C)[C@@H](C6=CC(=O)OC6)CC[C@]5(O)[C@@H]4CC[C@]3(O)C2)[C@H](O)[C@H](O)[C@H]1O [ouabain, 3-(alpha-L-Rhamnopyranosyloxy)-1beta,5beta,11alpha,14,19-pentahydroxy-5beta-card-20(22)-enolide] | did not affect the amplitude | 0.14 ± 0.03 | 2.43 ± 0.84 | 0.07 ± 0.05 | 67 | 130±17.95 | 100±20.06 | 616.6 ± 197.6 | 0.24 ± 0.17 | did not increase SF | significantly increased the SF of the heart starting at the 3rd day of treatment | did not affect significantly heart rate | did not result in SF improvement
NC1(c2ccc(-c3nc4ccn5c(=O)[nH]nc5c4cc3-c3ccccc3)cc2)CCC1 [MK-2206] | did not affect the amplitude | 0.15 ± 0.02 | 2.61 ± 0.74 | 0.98 ± 0.34 | – | – | – | 363.5 ± 88.59 | 0.07 ± 0.06 | – | – | did not affect significantly heart rate | did not result in SF improvement
